This assay relates to murine neural precursor cells (neurosphere cultures). Put plainly: HTS of LOPAC library against secondary neurosphere cultures, MTT proliferation assay at 3 μM, day 7 (z score, P value). It is filed as cell-based, mouse. (In general: Tetrazolium dyes change colour on reduction, which living cells bring about.)
Setting [1] is: LOPAC library screen at 3 μM, secondary neurosphere cultures, MTT.
The mark [2] stands for this setting: LOPAC primary screen, neurosphere MTT proliferation, 3 μM, day 7.
Where [3] appears, read: yes/no: significantly inhibited neurosphere proliferation (P<0.01) in the primary screen.
Setting [4] is: yes = significantly inhibited neurosphere proliferation (P<0.01) in the primary screen.
Where [5] appears, read: yes/no: significantly inhibited neurosphere proliferation (P<0.01) in primary screen.
Where [6] appears, read: yes/no: significantly inhibited neurosphere proliferation in primary screen.
[7] abbreviates: LOPAC library screen, 3 μM, MTT, neurosphere cultures.
Where [8] appears, read: LOPAC screen, neurosphere MTT proliferation, 3 μM, day 7.
[9] abbreviates: primary LOPAC screen, 3 μM, MTT, neurosphere proliferation.
Where [10] appears, read: yes/no: significantly inhibited neurosphere proliferation in the primary screen.
Setting [11] is: LOPAC library screen, 3 μM, MTT, secondary neurosphere cultures, day 7.

The source of these data is US8058243B2, “Method for treating a brain cancer with ifenprodil” (HSC Research and Development Limited Partnership, priority 2006, dated 2011).

Structures can show the parent of a compound that is named as a salt. Where two headings read alike, the source gives them in different places. Residues, ends and D or L forms follow the SMILES beside them. *: point of attachment. Cbz = O=C(OCc1ccccc1)*

For `CN(C)CCC(c1ccccc1)c1ccccn1` (stereo not drawn) [Pheniramine maleate], the “Z Score” value under setting [1] was −0.2062. Moreover, under setting [2], the Z score was −0.206. The Activity entry under setting [3] is recorded as “no”.
Regarding `Cl.FC(F)(F)c1cc(CO[C@H]2CCCN[C@H]2c2ccccc2)cc(C(F)(F)F)c1` [L-733,060 hydrochloride], the “Z Score” value is listed as −1.465. This compound also registered a Z score under setting [2] of −1.465. In addition, the Activity entry under setting [4] was “no”.
As to `CC(C)[C@H](NC(=O)OCc1ccccc1)C(=O)N[C@H](C=O)Cc1ccccc1` [MDL 28170] (Cbz-Val-Phe-aldehyde), where the note is “168 h, 3 µM”, the “Z Score” value is −1.139 and the Z score was −1.139.
Turning to `CCCCCCCCCCCCCCCC(=O)OC(CC(=O)O)C[N+](C)(C)C.[Cl-]` (racemic) [Palmitoyl-DL-Carnitine chloride], the “Z Score” value was found to be 0.1995.
As to `CN(C)C(=O)C(CCN1CCC(O)(c2ccc(Cl)cc2)CC1)(c1ccccc1)c1ccccc1` [Loperamide hydrochloride], the “Z Score” value is listed as −0.4976. The Z score under setting [2] was −0.498. For the same compound, the Activity result under setting [5] is “no”.
As for `Cl.NCCNC(=O)c1ncsc1-c1cccc(F)c1` [Ro 41-1049 hydrochloride], the “Z Score” value amounted to 1.328. The same compound had a Z score under setting [2] of 1.328. In addition, the Activity entry under setting [6] is given as “no”.
Consider `Cc1ccc(/C(=C\CN2CCCC2)c2ccccn2)cc1` [Triprolidine hydrochloride], for which the “Z Score” value under setting [1] is given as −0.4061. The Z score under setting [2] is on record as −0.406. In addition, the Activity result under setting [6] was “no”.
Consider `CN(C)CC/C=C1/c2ccccc2Sc2ccc(Cl)cc21` [Chlorprothixene hydrochloride], for which, under “168 h, 3 µM”, the “Z Score” value is on record as −5.008 and the Z score is −5.008. Also, the Activity result under setting [3] is reported as “yes”.
`Cc1ccc(S(=O)(=O)N[C@@H](CCCCN)C(=O)CCl)cc1.Cl`: the Activity result is “no” and the “Z Score” value stood at 0.004812. The Z score under setting [2] came out at 0.005.
Regarding `CN1CCc2cc(Cl)c(O)cc2[C@@H](c2ccccc2)C1.Cl` [R(+)-SCH-23390 hydrochloride], the “Z Score” value under setting [7] was 1.375. The same compound displayed a Z score under setting [8] of 1.375. For the same compound, under setting [5], the Activity entry is “no”.
Take `C[C@]12CC[C@@H]3c4ccc(O)cc4CC[C@H]3[C@@H]1CCC2=O` [Estrone]: the “Z Score” value under setting [7] came out at 0.04081. For the same compound, the Z score under setting [2] was determined as 0.041.
Regarding `Brc1c(NC2=NCCN2)ccc2nccnc12` [UK 14,304], the Activity entry is given as “no”, the “Z Score” value is reported as −0.2103 and the Z score is reported as −0.210.
In the case of WB 64, the “Z Score” value was −1.683. Under setting [9], this compound returned a Z score of −1.683. Also, the Activity result under setting [10] is given as “no”.
Turning to `O=Nc1ccc2oc(=O)ccc2c1` [6-Nitroso-1,2-beazopyrone], the “Z Score” value is listed as 0.01132.
For the compound `CCOC(=O)[C@]12CC1/C(=N\O)c1ccccc1O2` (mixture of isomers) [CPCCOEt], under setting [1], the “Z Score” value is recorded as −0.8068. Besides, under setting [8], the Z score is on record as −0.807.
In the case of `O=C(O)C=Cc1c[nH]cn1` [4-Imidazoleacrylic acid], the “Z Score” value is listed as −0.2635. Further, the Z score under setting [9] was −0.264. Moreover, under setting [10], the Activity entry was “no”.
Turning to `Oc1ccc2c3c1O[C@H]1[C@@H](O)CC[C@@]4(O)[C@@H](C2)N(CC2CCC2)CC[C@]314` [Nalbuphine hydrochloride], the Activity entry was “no”, the “Z Score” value was 0.07032 and the Z score is 0.070.
Consider S-(−)-Carbidopa, for which, under setting [11], the “Z Score” value was −2.314. The Z score under setting [8] is −2.314. The Activity result under setting [5] is “no”.
Regarding `OC[C@H]1NC[C@@H](O)[C@@H]1O` [1,4-Dideoxy-1,4-imino-D-arabinitol], for the setting “168 h, 3 µM”, the “Z Score” value is recorded as −0.008617 and the Z score is recorded as −0.009. Further, the Activity entry under setting [5] is “no”.
With `[Cl-].[Li+]` [Lithium Chloride], the “Z Score” value is on record as −0.9113. Moreover, under setting [2], the Z score is on record as −0.911. Moreover, under setting [5], the Activity result is listed as “no”.
Consider `CCC1(C)CC(=O)NC1=O` (stereo not drawn) [Ethosuximide], for which the “Z Score” value under setting [1] is recorded as −0.6124. The same compound displayed a Z score under setting [2] of −0.612. Further, the Activity result under setting [5] is recorded as “no”.
Regarding `CN(C)CCC=C1c2ccccc2CCc2ccccc21` [Amitriptyline hydrochloride], where the note is “168 h, 3 µM”, the “Z Score” value is given as 0.7066 and the Z score came out at 0.707. The Activity entry under setting [3] is recorded as “no”.
Consider `CCOC(=O)C1=C(C)NC(C)=C(C(=O)OC)C1c1cccc([N+](=O)[O-])c1` (stereo not drawn) [Nitrendipine], for which, under setting [11], the “Z Score” value was −1.61. Under setting [2], this compound displayed a Z score of −1.610.
Take `O=C(O)CCCCC1CCSS1` (racemic) [(±)-alpha-Lipoic Acid]: the Z score under setting [2] is on record as 0.342. Besides, the Activity entry under setting [6] is on record as “no”.
Regarding `CC(=N)NCCCC[C@H](N)C(=O)O.Cl` [L-N6-(1-Iminoethyl)lysine hydrochloride], the “Z Score” value is −0.3809. In addition, under setting [2], the Z score was −0.381. Also, the Activity entry under setting [5] is on record as “no”.
`NC(=O)c1ccccc1C(=O)N[C@@H](CCC(=O)O)C(=O)O.[Na].[Na].[Na]` [Phthalamoyl-L-glutamic acid trisodium]: where the note is “168 h, 3 µM”, the “Z Score” value was determined as 0.2509 and the Z score was found to be 0.251. Besides, the Activity entry under setting [6] is “no”.
Turning to `C[C@H]1C[C@H]2[C@@H]3CCC4=CC(=O)C=C[C@]4(C)[C@@]3(Cl)[C@@H](O)C[C@]2(C)[C@@]1(O)C(=O)CO` [Beclomethasone], under setting [7], the “Z Score” value amounted to 0.267. This compound registered a Z score under setting [9] of 0.267. Also, the Activity entry under setting [10] is “no”.
Regarding `Cl.NO` [Hydroxylamine hydrochloride], the Activity entry is on record as “no”, the “Z Score” value was 1.635 and the Z score was found to be 1.635.
In the case of `CN[C@H](CC(=O)O)C(=O)O` [N-Methyl-D-aspartic acid], the “Z Score” value is on record as −1.86. For the same compound, the Z score under setting [2] is reported as −1.860. Further, the Activity result under setting [4] is given as “no”.
As to `C/C=C(/C)C(=O)O[C@H]1C(C)=C2[C@H]([C@@H]1OC(=O)CCCCCCC)[C@@](C)(OC(C)=O)C[C@H](OC(=O)CCC)[C@@]1(O)[C@H]2OC(=O)[C@@]1(C)O` [Thapsigargin], the “Z Score” value under setting [11] was −9.559. This compound also had a Z score under setting [2] of −9.559. Also, the Activity entry under setting [4] is “yes”.
Regarding `NC(=O)CN1CCCC1=O` [Piracetam], the “Z Score” value under setting [1] is on record as −0.3758. This compound came in with a Z score under setting [2] of −0.376. The Activity result under setting [4] was “no”.
Take `Cn1c(=O)c2[nH]c(-c3ccc(S(=O)(=O)O)cc3)nc2n(C)c1=O` [8-(p-Sulfophenyl)theophylline]: where the note is “168 h, 3 µM”, the “Z Score” value came out at 1.047 and the Z score was found to be 1.047. For the same compound, the Activity result under setting [10] is given as “no”.
For `O=C(O)C1CCCNC1` (stereo not drawn) [(B1)-Nipecotic acid], the “Z Score” value is reported as −0.7215.
R-(−)-Fluoxetine hydrochloride: the Activity entry is “no”. Moreover, the “Z Score” value under setting [1] was −0.1281.
`COC(=O)c1c(C)[nH]c(C)c1C(=O)c1ccccc1Cc1ccccc1` [FPL 64176]: the “Z Score” value is given as −1.099. The Z score under setting [2] is given as −1.099. Besides, under setting [5], the Activity result is “no”.
With `c1ccc2c(c1)CCCC2C1=NCCN1` (stereo not drawn) [Tetrahydrozoline hydrochloride], under setting [1], the “Z Score” value is recorded as −0.4693. The compound further showed a Z score under setting [9] of −0.469. For the same compound, the Activity entry under setting [10] is recorded as “no”.
